# Source: patent US10047076B2, “Halogen-substituted compounds” (BAYER CROPSCIENCE AKTIENGESELLSCHAFT, priority 2014, dated 2018)
# Key:
# [1] = log P determination by HPLC on reversed-phase column (C18), EEC Directive 79/831 Annex V.A8, acidic (formic acid); assay type: physicochemical; details: HPLC method a), acetonitrile/water with formic acid
# Experimental: ^1 The stated mass is the peak of the isotope pattern of the [M+H]^+ ion of the highest intensity; if the [M-H]^- ion was detected, the stated mass is identified with ^2. ^2 The stated mass is the peak of the isotope pattern of the [M-H]^- ion of the highest intensity. ^a) Note regarding the determination of the log P values and mass detection: The determination of the given log P values was carried out in accordance with EEC Directive 79/831 Annex V.A8 by HPLC (High Performance Liquid Chromatography) on a reversed-phase column (C18). […] Mass detection is effected by means of an […] system. ^b) Note regarding the determination of the retention time and mass detection: The stated retention times were determined on a reversed-phase column (C18) Shimadzu LCMS 2020; 50*3.0 Shimadzu shim-pack XR-ODS 2.2 micron; mobile phase A: water (0.05% TFA); mobile phase B: acetonitrile; linear gradient from 5% acetonitrile to 95% acetonitrile in 6.00 min, then 95% acetonitrile for a further 1.1 min; oven temperature 40° C.; flow rate: 1.0 ml/min. ^c) Note regarding the determination of the retention time and mass detection: Instrument: Waters ACQUITY SQD UPLC system; column. Waters Acquity UPLC HSS T3 1.8μ 50×1 mm; mobile phase A: 1 l of water+0.25 ml of 99% strength formic acid, mobile phase B: 1 l of acetonitrile+0.25 ml of 99% strength formic acid; gradient: 0.0 min 90% A→1.2 min 5% A→2.0 min 5% A oven: 50° C.; flow rate: 0.40 ml/min; UV detection: 208-400 nm. ^d) Note regarding the determination of the retention time and mass detection: […] The determination of the given log P values was carried out in accordance with EEC Directive 79/831 Annex V.A8 by HPLC (High Performance Liquid Chromatography) on a reversed-phase column (C18). […] Mass detection is effected by means of an […] system.
# [2] = test system: Boophilus microplus; assay: Boophilus microplus injection test; assay type: in vivo; details: 20 μg/animal, engorged adult female ticks, after 7 days
# Experimental: (§1) Solvent: dimethyl sulphoxide
# 1 μl of the active compound solution is injected into the abdomen of 5 engorged adult female cattle ticks (Boophilus microplus). The animals are transferred into dishes and kept in a climate-controlled room.
# Efficacy is assessed after 7 days by laying of fertile eggs. Eggs which are not visibly fertile are stored in a climate-controlled cabinet until the larvae hatch after about 42 days. An efficacy of 100% means that none of the ticks has laid any fertile eggs; 0% means that all the eggs are fertile.
# [3] = test system: Ctenocephalides felis; assay: Ctenocephalides felis oral test; assay type: in vivo; details: 100 ppm in citrated cattle blood, after 2 days
# Excerpt: as §1
# Dilution with citrated cattle blood gives the desired concentration.
# About 20 unfed adult cat fleas (Ctenocephalides felis) are placed into a chamber which is closed at the top and bottom with gauze. A metal cylinder whose bottom end is closed with parafilm is placed onto the chamber. The cylinder contains the blood/active compound preparation, which can be imbibed by the fleas through the parafilm membrane.
# [4] = test system: Lucilia cuprina; assay: Lucilia cuprina test; assay type: in vivo; details: 100 ppm, L1 larvae, after 2 days
# Experimental: as §1
# About 20 L1 larvae of the Australian sheep blowfly (Lucilia cuprina) are transferred into a test vessel containing minced horsemeat and the active compound preparation of the desired concentration.
# After 2 days, the kill in % is determined.
# [5] = test system: Musca domestica; assay: Musca domestica test; assay type: in vivo; details: 100 ppm, adult houseflies, after 2 days
# Excerpt: as §1
# Vessels containing a sponge treated with sugar solution and the active compound preparation of the desired concentration are populated with 10 adult houseflies (Musca domestica).
# [6] = test system: Spodoptera frugiperda; assay: Spodoptera frugiperda spray test; assay type: in vivo; details: caterpillars on maize leaf discs, after 7 days
# Excerpt: (§2) Solvent: 78.0 parts by weight of acetone
# [7] = test system: Phaedon cochleariae; assay: Phaedon cochleariae spray test; details: larvae on Chinese cabbage leaf discs, after 7 days
# [8] = test system: Rhipicephalus sanguineus; assay: Rhipicephalus sanguineus in vitro contact test with adult brown dog ticks; assay type: in vivo; details: after 48 h, adult ticks dead or moribund
# Experimental: For the coating of the test tubes, 9 mg of active compound are first dissolved in 1 ml of acetone p.a. and then diluted to the desired concentration with acetone p.a. 250 μl of the solution are distributed homogeneously on the inner walls and the base of a 25 ml test tube by turning and rocking on an orbital shaker (rocking rotation at 30 rpm for 2 h). With 900 ppm active compound solution and internal surface 44.7 cm^2, given homogeneous distribution, an area-based dose of 5 μg/cm^2 is achieved.
# After the solvent has evaporated off, the tubes are populated with 5-10 adult dog ticks (Rhipicephalus sanguineus), sealed with a perforated plastic lid and incubated in a horizontal position in the dark at room temperature and ambient humidity. After 48 h, efficacy is determined. To this end, the ticks are knocked to the floor of the tube and incubated on a hotplate at 45-50° C. for not more than 5 min. Ticks which remain motionless on the floor or move in such an uncoordinated manner that they are unable to deliberately avoid the heat by climbing upwards are considered to be dead or moribund.
# An efficacy of 100% means that all the ticks were dead or moribund. 0% efficacy means that none of the ticks had been harmed.
# [9] = test system: Tetranychus urticae; assay: Tetranychus urticae spray test, OP-resistant (bean leaf discs); assay type: in vivo; details: 500 g/ha, after 6 days
# Experimental: as §2
# After 6 days, the efficacy in % is determined.
# [10] = application rate 5 μg/cm^2 (500 g/ha)
Structure (SMILES),logP [1],efficacy (laying of fertile eggs) [2],efficacy (kill in %) [3],efficacy (kill in %) [4],efficacy (kill in %) [5],efficacy ([6]; 100 g/ha),efficacy ([7]; 100 g/ha),efficacy ([8]; application rate 1 μg/cm^2 (100 g/ha)),"efficacy [8, 10]",efficacy ([6]; 500 g/ha),efficacy [9],efficacy ([7]; 500 g/ha)
Cn1nc(C(F)(F)C(F)(F)F)c(C(F)(F)F)c1-c1ccc(-c2ccc(Cl)c(C(=O)NC3(C#N)CC3)c2)o1 [Iaa-1],4.08,100%,100%,100%,100%,100%,100%,–,–,–,–,–
Cn1nc(C(F)(F)C(F)(F)F)c(C(F)(F)F)c1-c1cc(-c2ccc(Cl)c(C(=O)NCC(F)(F)F)c2)no1 [Iap-2],4.42,100%,100%,100%,100%,100%,100%,80%,–,–,–,–
Cn1nc(C(F)(F)C(F)(F)F)c(C(F)(F)F)c1-c1cc(-c2ccc(Cl)c(C(=O)NC3CSC3)c2)no1 [Iap-4],4.37,100%,100%,100%,–,–,–,–,100%,80%,90%,100%
Cn1nc(C(F)(F)C(F)(F)F)c(C(F)(F)F)c1-c1cc(-c2ccc(Cl)c(C(=O)NC3(C(F)(F)F)CC3)c2)no1 [Iap-5],4.55,100%,100%,100%,100%,–,100%,–,–,–,–,–
Cn1nc(C(F)(F)C(F)(F)F)c(C(F)(F)F)c1-c1noc(-c2ccc(Cl)c(C(=O)NC3(C#N)CC3)c2)n1 [Ibe-4],4.01,100%,100%,100%,100%,–,–,–,–,100%,90%,100%
Cn1nc(C(F)(F)C(F)(F)F)c(C(F)(F)F)c1-c1nc(-c2ccc(Cl)c(C(=O)NC3(C#N)CC3)c2)no1 [Ibf-2],4.14,100%,100%,100%,100%,–,–,–,80%,100%,–,100%
Cn1nc(C(F)(F)C(F)(F)F)c(C(F)(F)F)c1-c1nc(-c2ccc(Cl)c(C(=O)NC3CC3)c2)no1 [Ibf-3],4.26,100%,100%,100%,80%,–,–,–,–,100%,–,100%
CCn1nc(-c2ccc(Cl)c(C(=O)NC3CC3)c2)nc1-c1c(C(F)(F)F)c(C(F)(F)C(F)(F)F)nn1C [Ibg-5],4.09,–,–,–,–,–,–,–,–,–,90%,100%
Cn1nc(-c2c(C(F)(F)F)c(C(F)(F)C(F)(F)F)nn2C)nc1-c1ccc(Cl)c(C(=O)NCC(F)(F)F)c1 [Ibh-3],3.99,–,–,–,–,–,–,–,–,100%,90%,100%
CCn1nc(-c2c(C(F)(F)F)c(C(F)(F)C(F)(F)F)nn2C)nc1-c1ccc(Cl)c(C(=O)NC2CC2)c1 [Ibh-4],3.99,100%,90%,100%,90%,–,–,–,–,–,100%,100%
